These compounds were tested against GLP1R (Homo sapiens, UniProt P43220) (assay: GLP1R/CRE-Luc luciferase reporter gene assay (agonist activity)). Details: HKE293-Human GLP1R/CRE-luc cells, 5 h at 37° C., read-out: EC50 (nM) Assay 2.
Assay type: cell-based
Design: host or cells: HKE293 (so in the source)
Method: GLP1R-mediated agonist activity was determined with a cell-based functional assay utilizing a britelite plus luciferase reporter gene assay system. The stable cell line overexpress GLP1R and target response element. The stimulation with GLP1R agonist results in the upregulation of intracellular cAMP, which regulate the activities of cAMP-response element binding protein (CREB) and CREB-Luc. Reagents and equipment used in the assay are listed below, followed by the protocol.
• 1) Cell Line: HKE293-Human GLP1R/CRE-luc • 2) Complete Medium: DMEM+10% FBS+1×Penicillin-Streptomycin+400 μg/mL G418
• a) Seed HKE293-Human GLP1R/CRE-luc cells at 20,000 cells/well into 384 well assay plate (6007680-50, PE) using complete medium and incubate overnight. • b) Prepare 6×compound working solution with Medium. • c) Add 5 μL 6×compound working solution into cell plate, incubate 5 h at 37° C. • d) Add 20 μl britelite plus Luciferase Assay Reagent into each well of 384-well assay plate. • e) Record the luminescence value on Envision plate reader.
• 3.1% Activity is calculated as follow:
% Activity=(Signalcmpd−SignalAve_VC)/(SignalAve_PC−SignalAve_VC)×100. • 3.2 Calculate EC50 and Plot effect-dose curve of cmpds:
Y=Bottom+(Top−Bottom)/(1+10^((Log EC50−X)*HillSlope)) • X: log of agonist concentration; Y: % Activity.

Chain of GLP1R (P43220 24-463): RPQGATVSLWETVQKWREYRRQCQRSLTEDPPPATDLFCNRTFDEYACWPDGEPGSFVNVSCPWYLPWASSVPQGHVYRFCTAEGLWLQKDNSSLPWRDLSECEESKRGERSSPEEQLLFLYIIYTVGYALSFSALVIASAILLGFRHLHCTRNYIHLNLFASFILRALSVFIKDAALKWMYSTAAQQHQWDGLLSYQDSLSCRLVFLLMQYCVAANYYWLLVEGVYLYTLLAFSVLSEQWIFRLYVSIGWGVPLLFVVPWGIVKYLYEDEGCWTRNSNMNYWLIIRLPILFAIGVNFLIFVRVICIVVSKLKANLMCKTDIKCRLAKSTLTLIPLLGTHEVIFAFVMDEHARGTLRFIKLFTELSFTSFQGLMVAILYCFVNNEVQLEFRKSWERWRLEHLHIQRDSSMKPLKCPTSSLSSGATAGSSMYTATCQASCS

SMILES | EC50 [nM]
COc1cc(C#N)ccc1COc1nc(C23CCN(Cc4nc5ccc(C(=O)O)cc5n4C[C@@H]4CCO4)CC2C3)ncc1F (stereo partly drawn) [Compound 1-31, 2-((6-(4-((4-cyano-2-methoxybenzyl)oxy)-5-fluoropyrimidin-2-yl)-3-azabicyclo[4.1.0]heptan-3-yl)methyl)-1-(((S)-oxetan-2-yl)methyl)-1H-benzo[d]imidazole-6-carboxylic acid] | 132
[2H]C([2H])([2H])Oc1cc(C(=O)O)cc2c1nc(CN1CCC3(c4cccc(OCc5ccc(C#N)cc5OC)n4)CC3C1)n2C[C@@H]1CCO1 (stereo partly drawn) [Compound 1-32, 2-((6-(6-((4-cyano-2-methoxybenzyl)oxy)pyridin-2-yl)-3-azabicyclo[4.1.0]heptan-3-yl)methyl)-4-(methoxy-d3)-1-(((S)-oxetan-2-yl)methyl)-1H-benzo[d]imidazole-6-carboxylic acid] | 0.49
COc1cc(C#N)ccc1COc1nc(C23CCN(Cc4nc5c(OC)cc(C(=O)O)cc5n4C[C@@H]4CCO4)CC2C3)ncc1C (stereo partly drawn) [Compound 1-33, 2-((6-(4-((4-cyano-2-methoxybenzyl)oxy)-5-methylpyrimidin-2-yl)-3-azabicyclo[4.1.0]heptan-3-yl)methyl)-4-methoxy-1-(((S)-oxetan-2-yl)methyl)-1H-benzo[d]imidazole-6-carboxylic acid] | 105
COc1cc(C(F)(F)F)ccc1COc1ccnc(C23CCN(Cc4nc5c(OC)cc(C(=O)O)cc5n4C[C@@H]4CCO4)CC2C3)n1 (stereo partly drawn) [Compound 1-34, 4-methoxy-2-((6-(4-((2-methoxy-4-(trifluoromethyl)benzyl)oxy)pyrimidin-2-yl)-3-azabicyclo[4.1.0]heptan-3-yl)methyl)-1-(((S)-oxetan-2-yl)methyl)-1H-benzo[d]imidazole-6-carboxylic acid] | 1.06
COc1nc(C#N)ccc1COc1ccnc(C23CCN(Cc4nc5c(OC)cc(C(=O)O)cc5n4C[C@@H]4CCO4)CC2C3)n1 (stereo partly drawn) [Compound 1-35, 2-((6-(4-((6-cyano-2-methoxypyridin-3-yl)methoxy)pyrimidin-2-yl)-3-azabicyclo[4.1.0]heptan-3-yl)methyl)-4-methoxy-1-(((S)-oxetan-2-yl)methyl)-1H-benzo[d]imidazole-6-carboxylic acid] | 2.68
COc1c(COc2cccc(C34CCN(Cc5nc6c(OC)cc(C(=O)O)cc6n5C[C@@H]5CCO5)CC3C4)n2)ccc(C#N)c1F (stereo partly drawn) [Compound 1-36, 2-((6-(6-((4-cyano-3-fluoro-2-methoxybenzyl)oxy)pyridin-2-yl)-3-azabicyclo[4.1.0]heptan-3-yl)methyl)-4-methoxy-1-(((S)-oxetan-2-yl)methyl)-1H-benzo[d]imidazole-6-carboxylic acid] | 9.38
COc1ccc(COc2cccc(C34CCN(Cc5nc6ccc(C(=O)O)cc6n5C[C@@H]5CCO5)CC3C4)n2)c(F)c1 (stereo partly drawn) [Compound 1-37, 2-((6-(6-((2-fluoro-4-methoxybenzyl)oxy)pyridin-2-yl)-3-azabicyclo[4.1.0]heptan-3-yl)methyl)-1-(((S)-oxetan-2-yl)methyl)-1H-benzo[d]imidazole-6-carboxylic acid] | 497
COc1cc(C#N)ccc1COc1ccnc(C23CCN(Cc4nc5c(OC)cc(C(=O)O)cc5n4C[C@@H]4CCO4)CC2C3)n1 (stereo partly drawn) [Compound 1-38, 2-((6-(4-((4-cyano-2-methoxybenzyl)oxy)pyrimidin-2-yl)-3-azabicyclo[4.1.0]heptan-3-yl)methyl)-4-methoxy-1-(((S)-oxetan-2-yl)methyl)-1H-benzo[d]imidazole-6-carboxylic acid] | 0.79
CCOc1cc(C#N)ccc1COc1ccnc(C23CCN(Cc4nc5c(OC)cc(C(=O)O)cc5n4C[C@@H]4CCO4)CC2C3)n1 (stereo partly drawn) [Compound 1-39, 2-((6-(4-((4-cyano-2-ethoxybenzyl)oxy)pyrimidin-2-yl)-3-azabicyclo[4.1.0]heptan-3-yl)methyl)-4-methoxy-1-(((S)-oxetan-2-yl)methyl)-1H-benzo[d]imidazole-6-carboxylic acid] | 29
COc1cc(C(=O)O)cc2c1nc(CN1CCC3(c4nccc(OCc5ccc(C#N)cc5OC(C)C)n4)CC3C1)n2C[C@@H]1CCO1 (stereo partly drawn) [Compound 1-40, 2-((6-(4-((4-cyano-2-isopropoxybenzyl)oxy)pyrimidin-2-yl)-3-azabicyclo[4.1.0]heptan-3-yl)methyl)-4-methoxy-1-(((S)-oxetan-2-yl)methyl)-1H-benzo[d]imidazole-6-carboxylic acid] | 22.1
CCOc1cc(C(=O)O)cc2c1nc(CN1CCC3(c4nccc(OCc5ccc(C#N)cc5OC)n4)CC3C1)n2C[C@@H]1CCO1 (stereo partly drawn) [Compound 1-41, 2-((6-(4-((4-cyano-2-methoxybenzyl)oxy)pyrimidin-2-yl)-3-azabicyclo[4.1.0]heptan-3-yl)methyl)-4-ethoxy-1-(((S)-oxetan-2-yl)methyl)-1H-benzo[d]imidazole-6-carboxylic acid] | 0.34
COc1cc(C#N)ccc1COc1ccnc(C23CCN(Cc4nc5c(OC(C)C)cc(C(=O)O)cc5n4C[C@@H]4CCO4)CC2C3)n1 (stereo partly drawn) [Compound 1-42, 2-((6-(4-((4-cyano-2-methoxybenzyl)oxy)pyrimidin-2-yl)-3-azabicyclo[4.1.0]heptan-3-yl)methyl)-4-isopropoxy-1-(((S)-oxetan-2-yl)methyl)-1H-benzo[d]imidazole-6-carboxylic acid] | 6.5
COc1cc(C#N)ccc1COc1nc(C23CCN(Cc4nc5c(OC)cc(C(=O)O)cc5n4C[C@@H]4CCO4)CC2C3)ncc1F (stereo partly drawn) [Compound 1-43, 2-((6-(4-((4-cyano-2-methoxybenzyl)oxy)-5-fluoropyrimidin-2-yl)-3-azabicyclo[4.1.0]heptan-3-yl)methyl)-4-methoxy-1-(((S)-oxetan-2-yl)methyl)-1H-benzo[d]imidazole-6-carboxylic acid] | 0.49
CCn1cncc1Cn1c(CN2CCC3(c4cccc(OCc5ccc(C#N)cc5OC)n4)CC3C2)nc2ccc(C(=O)O)cc21 (centres unmarked) [Compound 1-44, 2-((6-(6-((4-cyano-2-methoxybenzyl)oxy)pyridin-2-yl)-3-azabicyclo[4.1.0]heptan-3-yl)methyl)-1-((1-ethyl-1H-imidazol-5-yl)methyl)-1H-benzo[d]imidazole-6-carboxylic acid] | 0.3
CCn1cncc1Cn1c(CN2CCC3(c4nccc(OCc5ccc(C#N)cc5OC)n4)CC3C2)nc2c(OC)cc(C(=O)O)cc21 (centres unmarked) [Compound 1-45, 2-((6-(4-((4-cyano-2-methoxybenzyl)oxy)pyrimidin-2-yl)-3-azabicyclo[4.1.0]heptan-3-yl)methyl)-1-((1-ethyl-1H-imidazol-5-yl)methyl)-4-methoxy-1H-benzo[d]imidazole-6-carboxylic acid] | 0.16
COc1cc(C#N)ccc1COc1ccnc(C23CCN(Cc4nc5c(Cl)cc(C(=O)O)cc5n4C[C@@H]4CCO4)CC2C3)n1 (stereo partly drawn) [Compound 1-46, 4-chloro-2-((6-(4-((4-cyano-2-methoxybenzyl)oxy)pyrimidin-2-yl)-3-azabicyclo[4.1.0]heptan-3-yl)methyl)-1-(((S)-oxetan-2-yl)methyl)-1H-benzo[d]imidazole-6-carboxylic acid] | 2.6
COc1cc(Cl)ccc1COc1ccnc(C23CCN(Cc4nc5c(OC)cc(C(=O)O)cc5n4C[C@@H]4CCO4)CC2C3)n1 (stereo partly drawn) [Compound 1-47, 2-((6-(4-((4-chloro-2-methoxybenzyl)oxy)pyrimidin-2-yl)-3-azabicyclo[4.1.0]heptan-3-yl)methyl)-4-methoxy-1-(((S)-oxetan-2-yl)methyl)-1H-benzo[d]imidazole-6-carboxylic acid] | 3.85
CCn1cncc1Cn1c(CN2CCC3(c4nccc(OCc5ccc(C(F)(F)F)cc5OC)n4)CC3C2)nc2c(OC)cc(C(=O)O)cc21 (centres unmarked) [Compound 1-48, 1-((1-ethyl-1H-imidazol-5-yl)methyl)-4-methoxy-2-((6-(4-((2-methoxy-4-(trifluoromethyl)benzyl)oxy)pyrimidin-2-yl)-3-azabicyclo[4.1.0]heptan-3-yl)methyl)-1H-benzo[d]imidazole-6-carboxylic acid] | 0.33
C#Cc1ccc(COc2ccnc(C34CCN(Cc5nc6c(OC)cc(C(=O)O)cc6n5C[C@@H]5CCO5)CC3C4)n2)c(OC)c1 (stereo partly drawn) [Compound 1-49, 2-((6-(4-((4-ethynyl-2-methoxybenzyl)oxy)pyrimidin-2-yl)-3-azabicyclo[4.1.0]heptan-3-yl)methyl)-4-methoxy-1-(((S)-oxetan-2-yl)methyl)-1H-benzo[d]imidazole-6-carboxylic acid] | 10.2
COc1cc(C#N)ccc1COc1cccc(C23CCN(Cc4nc5c(F)cc(C(=O)NS(C)(=O)=O)cc5n4C[C@@H]4CCO4)CC2C3)n1 (stereo partly drawn) [Compound 7-1, 2-((6-(6-((4-cyano-2-methoxybenzyl)oxy)pyridin-2-yl)-3-azabicyclo[4.1.0]heptan-3-yl)methyl)-4-fluoro-N-(methylsulfonyl)-1-(((S)-oxetan-2-yl)methyl)-1H-benzo[d]imidazole-6-carboxamide] | 266

Reference: patent US20240382471A1, “GLUCAGON-LIKE PEPTIDE-1 RECEPTOR MODULATORS AND USES THEREOF” (HEPAGENE THERAPEUTICS (HK) LIMITED, priority 2021, published 2024)
